Test results reported in patent US10875876B2, “Cyclized sulfamoylarylamide derivatives and the use thereof as medicaments for the treatment of hepatitis B” (priority 2015, dated 2020).
Where two headings read alike, the source gives them in different places.

What was measured:
[1] = from C=CCCCCC(C)NS(=O)(=O)c1cn(C)c(C(=O)OC)c1CC=C; rcm bond; Grubbs catalyst 2nd generation; DCE; 3.4 mM; 80.0 °C; 2.0 h
HBV = assay: anti HBV activity, HepG2.117 cell line, intracellular HBV DNA by realtime PCR; type: cell-based; conditions: HepG2.117 cell line (Tet-off), 3 days of treatment, intracellular HBV DNA quantified by realtime PCR; read-out: HBV-AVE-HepG2.117 EC50
In short: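 Readout was intracellular HBV DNA by real-time PCR (HBV-specific primers and probe) after 3 days of compound exposure. Serial dilutions were tested in duplicate on HepG2.117 cells, a stable inducible HBV producer in which replication is switched on when doxycycline is absent.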

HepG2 cells [2] = tested on: HepG2 cells
HepG2 cells [3] = assay: Cytotoxicity in HepG2 cells, Resazurin assay; conditions: read-out: TOX-HepG2-4 d CC50; HepG2 cells incubated for 4 days, viability by Resazurin assay

COC(=O)c1c2c(cn1C)S(=O)(=O)NC(C)CCCC/C=C\C2 (centres unmarked)
ring closure, yield of all isomers [1]: 61.1%

C[C@@H](N1CCCCc2c(cn(C)c2C(=O)Nc2ccc(F)c(F)c2)S1(=O)=O)C(F)(F)F [Compound 4, N-(3,4-difluorophenyl)-8-methyl-1,1-dioxo-2-[(1R)-2,2,2-trifluoro-1-methyl-ethyl]-3,4,5,6-tetrahydropyrrolo[3,4-g]thiazocine-7-carboxamide]
EC50 (HBV): 1090 nM | CC50 (HepG2 cells [2]): > 25 µM

CC1CCn2c(C(=O)Nc3ccc(F)c(F)c3)nc(Br)c2S(=O)(=O)N1 (centres unmarked) [compound 245]
EC50 (HBV): > 25000 nM | CC50 (HepG2 cells [3]): > 25 µM
